In patent US20050282743A1, “Molecular interactions in cells” (Arbor Vita Corporation, priority 2001, published 2005):
Structures can show the parent of a compound that is named as a salt.

Columns and labels:
[1] = biological target: T1, Mupp-1 7/13 : Presenilin 2 (117L) (Homo sapiens, UniProt O75970); experiment: G assay with FDA approved drug (Example 7, TABLES 10A, 10B); format: binding; conditions: OD in absence of drug 0.5; drug concentration per TABLE 11; read after 30 minutes
T1 construct: Entries having two numbers separated by a slash indicate which PDZ domain was utilized; made in house; host or cells: E. coli (DH5alpha, BL21 or JM109)
T1 sequence (O75970 with tags, fused parts or gaps): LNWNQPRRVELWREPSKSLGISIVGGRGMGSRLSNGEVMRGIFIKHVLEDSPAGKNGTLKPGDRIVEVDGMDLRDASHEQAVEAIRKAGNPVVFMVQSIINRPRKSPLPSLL
Protocol: (§1) For certain of the PDZ proteins and PL proteins shown to bind together and for which Kd values had been obtained, additional testing was conducted to determine whether certain pharmaceutical compounds would act to antagonize or agonize the interactions. Assays were conducted as for the G′ assay described supra both in the presence and absence of test compound, except that 50 ul of a 10 uM solution of the biotinylated PL peptide is allowed to react with the surface bearing the PDZ-domain polypeptide instead of a 20 uM solution as specified in step (2) of the assay.
(§2) In both tables, the first column (left to right) entitled “PDZ domain” lists the gene name of GST-PDZ domain fusion (see TABLE 9). Entries having two numbers separated by a slash indicate which PDZ domain was utilized. For example, in TABLE 10A, the entry for ZO-3 is 1/3. This means that PDZ domain 1 of 3 was used.
(§3) The second column labeled “PL” indicates the name of the PDZ ligand (see TABLES 10A and 10B) interacting with the PDZ domain. The third column entitled “Drug” lists the common or trade name of pharmaceutical compound tested and found to modulate the specific PDZ-PL interaction (suppliers and chemical information are listed in TABLE 11). The final column with the heading “Change in OD” indicates the change in absorbance at 450 nm of the assay in the absence (first number) or presence (second number) of chemical compound.
(§4) Many FDA approved drugs have unknown mechanism of function. It is quite possible that some of these drugs function by disrupting or increasing PDZ/PL interactions. This possibility was examined by using the ‘G Assay’ (Example 3 section D). FDA approved drugs were incubated in the presence of the labeled peptide and compared to the same interaction without drug to determine if there was an effect on specific PDZ:PL interactions (drugs added with peptide at step 9 in Example 3D). The primary focus of this experiment was on drugs involved in treatment of depression (amitriptyline, desipramine, trimipramine, benztropine, and nortryptilline) and epilepsy (valproic acid). No modes of action are known for these drugs.
(§5) Therapeutic dose was determined by guidelines given in the Physician's Desk Reference and in the assay, 200 times this amount was used. If a dosage range was given, the upper end of the range was used. Each interaction listed in TABLES 10A & B was tested in the ‘G Assay’ (see Example 3) against each of the drugs listed in TABLE 11. The concentration of GST-fusion protein and peptide used in the assay represent the Kd and were determined by titration. These values can be found in TABLE 7. The drugs were added to the peptide before addition to the well containing the PDZ protein. Otherwise, the assay was carried out as described and read at 450 nm after 30 minutes of developing. […]

[2] = biological target: T2, Par 3 3/3 : Presenilin 2 (117L) (Homo sapiens, UniProt Q8TEW0); experiment: as above; format: binding; conditions: OD in absence of drug 0.6; drug concentration per TABLE 11; read after 30 minutes
T2 construct: made in house; host or cells: E. coli (DH5alpha, BL21 or JM109)
T2 sequence (Q8TEW0 579-681): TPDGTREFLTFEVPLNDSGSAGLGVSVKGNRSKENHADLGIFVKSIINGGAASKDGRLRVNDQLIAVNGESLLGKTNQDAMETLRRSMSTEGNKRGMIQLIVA
Protocol: as §1, §2, §3, §4, §5

[3] = biological target: T3, PTPL-1 (4/5) : Presenilin 2 (117L) (Homo sapiens, UniProt Q12923, G1797A); experiment: G assay with FDA approved drug (Example 7, TABLE 10B); format: binding; conditions: OD in absence of drug 1.4; drug concentration per TABLE 11; read after 30 minutes
T3 construct: made in house; host or cells: E. coli (DH5α, BL21 or JM109)
T3 sequence (Q12923 1782-1879 G1797A): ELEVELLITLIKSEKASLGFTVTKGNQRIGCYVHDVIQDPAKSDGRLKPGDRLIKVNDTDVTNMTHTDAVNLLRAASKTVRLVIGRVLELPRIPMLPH
Protocol: as §1, §2, §3, §4
(§6) Therapeutic dose was determined by guidelines given in the Physician's Desk Reference and in the assay, 200 times this amount was used. If a dosage range was given, the upper end of the range was used. Each interaction listed in TABLES 10A & B was tested in the ‘G Assay’ (see Example 3) against each of the drugs listed in TABLE 11. The concentration of GST-fusion protein and peptide used in the assay represent the Kd and were determined by titration. These values can be found in TABLE 7. The drugs were added to the peptide before addition to the well containing the PDZ protein. Otherwise, the assay was carried out as described and read at 450 nm after 30 minutes of developing. For the sequences of the PDZs and PLs used in these tests, see TABLES 8 & 9.
(§7) List of interactions and therapeutics for which a modulation of binding was observed. Concentrations at which the GST-PDZ fusion protein and labeled peptide were used can be found in Table 7 or Table 12.

[4] = biological target: T4, Hemba 1003117 : Presenilin 2 (117L) (Homo sapiens, UniProt Q96JH8); experiment: as above; format: binding; conditions: OD in absence of drug 1.2; drug concentration per TABLE 11; read after 30 minutes
T4 construct: made in house; host or cells: E. coli (DH5α, BL21 or JM109)
T4 sequence (Q96JH8 969-1068): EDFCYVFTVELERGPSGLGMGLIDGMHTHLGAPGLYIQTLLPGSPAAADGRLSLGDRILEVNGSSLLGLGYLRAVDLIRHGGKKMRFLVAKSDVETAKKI
Protocol: as §1, §2, §3, §4, §6, §7

[5] = tested on: Antigen-specific mouse T cells, BR4.2; experiment: T cell stimulation assay, MBPAc1-16 and antigen presenting cells, IFNγ ELISA (FIG. 1A); format: cell-based; conditions: 10 μM Tat-peptide; compared to Tat-peptide alone or no peptide
Protocol: Antigen-specific T cell activation was measured by cytokine production. Fusion peptides containing tat and a T cell surface molecule carboxyl terminus inhibited γ-interferon (IFN) production by a T cell line in response to myelin basic protein (MBP) stimulation. […]
Cell Cultures Cells were maintained and tested in RPMI 1640 media supplemented with 10% fetal calf serum (HyClone), 2 mM glutamine, 10 mM Hepes, 100 U/ml penicillin, 100 μg/ml streptomycin, 0.1 mM non-essential amino acids, 1 mM sodium pyruvate, and 50 μM beta mercaptoethanol.
Supernatants were assayed for cytokine production following activation of T cell lines. […]
IFNγ was measured from cell supernatants, described above, at ambient temperature using the Endogen, Inc. ELISA protocol 3. […] The presence of IFNγ was detected with a biotin-labeled anti-mouse IFNγ monoclonal antibody (MM700B, Endogen, Inc.,). […] The absorbance at 450 nm was measured using a microtiter plate reader (Thermo Max, Molecular Devices) and the concentration of unknown IFNγ from cell supernatants was calculated from a standard curve generated by Softmax Pro software (Molecular Devices).

[6] = biological target: T5, ZO-3 1/3 : Presenilin (115L) (Homo sapiens, UniProt O95049); experiment: G assay with FDA approved drug (Example 7, TABLE 10A); format: binding; conditions: OD in absence of drug 1.2; drug concentration per TABLE 11; read after 30 minutes
T5 construct: the entry for ZO-3 is 1/3; This means that PDZ domain 1 of 3 was used; made in house; host or cells: E. coli (DH5alpha, BL21 or JM109)
T5 sequence (O95049 with tags, fused parts or gaps): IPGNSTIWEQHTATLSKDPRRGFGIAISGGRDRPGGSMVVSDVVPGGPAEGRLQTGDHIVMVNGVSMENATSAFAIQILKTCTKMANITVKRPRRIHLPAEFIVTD
Protocol: as §1, §2, §3, §4, §6, §7

[7] = biological target: T6, FLJ10324 : Presenilin 2 (117L) (Homo sapiens, UniProt Q96JH8); experiment: as above; format: binding; conditions: OD in absence of drug 0.4; drug concentration per TABLE 11; read after 30 minutes
T6 construct: made in house; host or cells: E. coli (DH5alpha, BL21 or JM109)
T6 sequence (Q96JH8 976-1061 limits assumed): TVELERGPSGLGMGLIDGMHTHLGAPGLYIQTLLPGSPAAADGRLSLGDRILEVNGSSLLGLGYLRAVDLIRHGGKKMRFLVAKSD
Protocol: as §1, §2, §3, §4, §6, §7

[8] = tested on: hSyntenin : Presenilin (115L); experiment: as above; format: binding; conditions: OD in absence of drug 1.1; drug concentration per TABLE 11; read after 30 minutes
Protocol: as §1, §2, §3, §4, §6, §7

BAI-1 (2/6) : DNAM (22L) = biological target: T7, BAI-1 (2/6) : DNAM (22L) (Homo sapiens, UniProt Q96QZ7); experiment: G assay with FDA approved drug (Example 7, TABLE 10B); format: binding; conditions: OD in absence of drug 4; drug concentration per TABLE 11; read after 30 minutes
T7 construct: made in house; host or cells: E. coli (DH5α, BL21 or JM109)
T7 sequence (Q96QZ7 463-566): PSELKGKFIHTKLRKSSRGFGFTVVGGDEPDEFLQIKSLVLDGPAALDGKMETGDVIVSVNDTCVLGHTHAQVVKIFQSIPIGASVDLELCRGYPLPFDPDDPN
Protocol: as §1, §2, §3, §4, §6, §7

Atr-P (1/6) : DNAM (22L) = biological target: T8, Atr-P (1/6) : DNAM (22L) (Homo sapiens, UniProt Q86UL8); experiment: as above; format: binding; conditions: OD in absence of drug 4; drug concentration per TABLE 11; read after 30 minutes
T8 construct: made in house; host or cells: E. coli (DH5α, BL21 or JM109)
T8 sequence (Q86UL8 408-511): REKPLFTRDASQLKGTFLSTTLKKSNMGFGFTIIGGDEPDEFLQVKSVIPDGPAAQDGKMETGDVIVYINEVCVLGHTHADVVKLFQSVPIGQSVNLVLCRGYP
Protocol: as §1, §2, §3, §4, §6, §7

ZO-2 (1/3) : DNAM (22L) = biological target: T9, ZO-2 (1/3) : DNAM (22L) (Homo sapiens, UniProt Q9UDY2); experiment: as above; format: binding
T9 construct: made in house; host or cells: E. coli (DH5α, BL21 or JM109)
T9 sequence (Q9UDY2 27-122): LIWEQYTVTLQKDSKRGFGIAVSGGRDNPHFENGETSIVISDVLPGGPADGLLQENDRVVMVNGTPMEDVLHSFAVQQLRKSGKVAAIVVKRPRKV
Protocol: as §1, §2, §3, §4, §6, §7

TIP-1 1/1 : LPAP (30L) = biological target: T10, TIP-1 1/1 : LPAP (30L) (Homo sapiens, UniProt O14907); experiment: G assay with FDA approved drug (Example 7, TABLE 10A); format: binding; conditions: OD in absence of drug 1.1; drug concentration per TABLE 11; read after 30 minutes
T10 construct: made in house; host or cells: E. coli (DH5alpha, BL21 or JM109)
T10 sequence (O14907 14-116): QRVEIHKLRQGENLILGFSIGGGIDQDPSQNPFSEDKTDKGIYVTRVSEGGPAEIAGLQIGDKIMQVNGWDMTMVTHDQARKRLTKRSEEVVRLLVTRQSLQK
Protocol: as §1, §2, §3, §4, §6, §7

ZO-1 2/3 : NET (258L) = biological target: T11, ZO-1 2/3 : NET (258L) (Homo sapiens, UniProt Q07157, DEL264-264); experiment: G assay with FDA approved drug (Example 7, TABLE 10B); format: binding; conditions: OD in absence of drug 0.8; drug concentration per TABLE 11; read after 30 minutes
T11 construct: made in house; host or cells: E. coli (DH5α, BL21 or JM109)
T11 sequence (Q07157 with tags, fused parts or gaps DEL264-264): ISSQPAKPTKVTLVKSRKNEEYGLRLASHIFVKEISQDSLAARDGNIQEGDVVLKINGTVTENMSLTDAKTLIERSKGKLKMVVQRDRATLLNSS
Protocol: as §1, §2, §3, §4, §6, §7

AF6 : Presenilin (115L) = biological target: T12, AF6 : Presenilin (115L) (Homo sapiens, UniProt P55196); experiment: G assay with FDA approved drug (Example 7, TABLE 10A); format: binding
T12 construct: made in house; host or cells: E. coli (DH5alpha, BL21 or JM109)
T12 sequence (P55196 1001-1093): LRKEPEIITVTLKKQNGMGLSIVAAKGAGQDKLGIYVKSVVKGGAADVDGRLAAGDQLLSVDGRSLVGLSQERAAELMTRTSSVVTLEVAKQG
Protocol: as §1, §2, §3, §4, §6, §7

DVL2 : Presenilin (115L) = biological target: T13, DVL2 : Presenilin (115L) (Homo sapiens, UniProt O14641); experiment: as above; format: binding; conditions: OD in absence of drug 0.3; drug concentration per TABLE 11; read after 30 minutes
T13 construct: made in house; host or cells: E. coli (DH5alpha, BL21 or JM109)
T13 sequence (O14641 with tags, fused parts or gaps): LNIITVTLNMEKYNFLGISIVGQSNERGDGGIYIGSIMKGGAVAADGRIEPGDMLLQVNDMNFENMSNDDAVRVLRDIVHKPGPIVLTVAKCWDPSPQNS
Protocol: as §1, §2, §3, §4, §6, §7

CCCC(CCC)C(=O)O [Valproic Acid, VALPROIC ACID]
Change in OD: absorbance at 450 nm in presence of drug [1]: 0.5 to 0.2
Change in OD: absorbance at 450 nm in presence of drug [2]: 0.6 to 0.2
CHANGE IN OD: absorbance at 450 nm in presence of drug [3]: 1.4 to 1.1
CHANGE IN OD: absorbance at 450 nm in presence of drug [4]: 1.2 to 0.8

GYGRKKRRQRRRGPPSSSSGL [Tat-CD3 fusion peptide]
T cell activation mediated by peptide:MHC (IFNγ production) [5]: inhibits T cell activation

CNCCCN1c2ccccc2CCc2ccccc21 [Desipramine, DESIPRAMINE HYDROCHLORIDE]
Change in OD: absorbance at 450 nm in presence of drug [6]: 1.2 to 3.3
Change in OD: absorbance at 450 nm in presence of drug [7]: 0.4 to 0.8
Change in OD: absorbance at 450 nm in presence of drug [8]: 1.1 to 2.3
Change in OD: absorbance at 450 nm in presence of drug [1]: 0.5 to 1.0
Change in OD: absorbance at 450 nm in presence of drug [2]: 0.6 to 2.1
CHANGE IN OD: absorbance at 450 nm in presence of drug (BAI-1 (2/6) : DNAM (22L)): 4 to 1.8
CHANGE IN OD: absorbance at 450 nm in presence of drug (Atr-P (1/6) : DNAM (22L)): 4 to 1.5
CHANGE IN OD: absorbance at 450 nm in presence of drug (ZO-2 (1/3) : DNAM (22L); OD in absence of drug 2.1, drug concentration per TABLE 11, read after 30 minutes): 2.1 to 0.5
antagonistic effect, binding relative to absence of drug (ZO-2 (1/3) : DNAM (22L); ZO-2 domain 1 and DNAM-1): 4.2 fold

CN1[C@@H]2CC[C@H]1C[C@@H](OC(c1ccccc1)c1ccccc1)C2 [Benztropine, BENZTROPINE MESYLATE]
Change in OD: absorbance at 450 nm in presence of drug (TIP-1 1/1 : LPAP (30L)): 1.1 to 1.6

CN(C)CCCN1c2ccccc2CCc2ccccc21 [Imipramine, Imipramine HCI]
CHANGE IN OD: absorbance at 450 nm in presence of drug (ZO-1 2/3 : NET (258L)): 0.8 to 0.4

CN(C)CCC=C1c2ccccc2CCc2ccccc21 [Amitriptyline, AMITRIPTYLINE HYDROCHLORIDE]
agonist effect, binding relative to absence of drug (AF6 : Presenilin (115L); AF6 and presenilin-1): 4.3 fold
Change in OD: absorbance at 450 nm in presence of drug (AF6 : Presenilin (115L); OD in absence of drug 0.4, drug concentration per TABLE 11, read after 30 minutes): 0.4 to 1.7
Change in OD: absorbance at 450 nm in presence of drug [6]: 1.2 to 3.6
Change in OD: absorbance at 450 nm in presence of drug (DVL2 : Presenilin (115L)): 0.3 to 0.9
Change in OD: absorbance at 450 nm in presence of drug [8]: 1.1 to 2.7
